Measurements from patent US8232278B2 (Gilead Sciences, Inc., priority 2005, dated 2012).

Columns and labels:
[1] = CC50 assay in Huh-7 HCV replicon cells (CellTiter-Glo); format: cell-based, human; conditions: human, 50% cytostatic concentration
Summary of the method: (§1)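 Huh-7 cells carrying an HCV replicon, 6000 per well, were exposed to 3-fold serial compound dilutions (0.5% DMSO final where DMSO was used) for 3 days at 37 °C. EC50 was read by luciferase after cell lysis; CC50 was taken as 50% inhibition of cell growth.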

[2] = system: HCV replicon; test: Anti-HCV assay / replicon assay (EC50, luciferase read-out); format: cell-based, hepatitis C virus (HCV)
Summary of the method: as §1

[3] = system: wild-type HIV-1 strain IIIB; test: HIV-1 assay (XTT, HIV-induced cytopathic effect in MT-2 cells); format: cell-based; conditions: Human immunodeficiency virus 1, MT2, 120 h; 5 μM; MT-2 cells infected with HIV-1 IIIB, 5 days, XTT; read-out: MT2 HIV % inhib. @ 5 μM
Description: This assay is based on the quantification of the HIV-induced cytopathic effect by a calorimetric detection of the viability of virus-infected cells in the presence or absence of tested inhibitors. The HIV-induced cell death was determined by using as a metabolic substrate 2,3-bis(2-methoxy-4-nitro-5-sulfophenyl)-2H-tetrazolium-5-carboxanilide (hereinafter referred as XTT) which was converted only by live cells into a product with specific absorption characteristics, as described by Weislow et al., J. Natl. Cancer Inst. (1989) 81:577.
The assay protocol for the determination of EC50 includes the following steps: • 1. MT-2 cells were maintained in RPMI-1640 medium supplemented with 10% fetal bovine serum, glutamine and antibiotics. • 2. Cells were infected by the wild-type HIV-1 strain IIIB (ABI, Columbia, Md.) for 3 hours at 37° C. using a multiplicity of infection (MOI) of 0.01. • 3. Prepare a set of solutions containing various concentrations of the tested inhibitor by making 5-fold serial dilutions in 96-well plate (100 μl/well). Alternatively, test single drug concentration (100 μl/well). Distribute the infected cells into the 96-well plate containing the inhibitors (20,000 cells in 100 μl/well). Include the following control samples, untreated infected cells (100% cell death) and control drug-treated infected cells (full protection). • 4. Incubate the cells for 5 days at 37° C. • 5. Prepare XTT solution (6 mL per assay plate) at a concentration of 2 mg/mL in a phosphate-buffered saline at pH 7.4. Heat the solution in water-bath for 10 minutes at 56° C. Add 50 μl of N-methylphenazonium methasulfate (5 μg/mL) per 6 mL of XTT solution. • 6. Remove 100 μl media from each well on the assay plate. • 7. Add 100 μl of the XTT substrate solution per well and incubate at 37° C. for 45 to 60 minutes in a CO2 incubator. • 8. Add 20 μl of 2% Triton X-100 per well to inactivate the virus. • 9. Read the absorbance at 450 nm with subtracting off the background absorbance at 650 nm. • 10. Plot the percentage absorbance relative to untreated control and estimate the EC50 value as drug concentration resulting in a 50% protection of the infected cells. Alternatively, calculate the percentage of inhibition for a fixed concentration, relative to the full protection with the control drug.
This assay has been performed on a set of compounds of the invention, and results are reported in table 8 below, also indicating the nature of substituents being present in positions 4 and 6 of the pyrido[3,2-d]pyrimidine derivatives of the invention (all being amino-substituted in position 2).

## CCOCCOc1nc(N)nc2ccc(-c3ccc(F)cc3)nc12 [Example 304, 2-amino-4-(2-ethoxyethoxy)-6-(4-fluorophenyl)-pyrido[3,2-d]pyrimidine]
[1]
  CC50 at 3 days: 37.5 µM
other
  melting point: 192 °C
[2]; CC50/EC50 ratio (selectivity index)
  CC50/EC50: 852
[2]; Hepatitis C virus, 72 h, human hepatoma Huh-7 cell line harbouring a HCV replicon, 3 days, luciferase luminescence, read-out: EC50
  EC50: 0.044 µM
[3]
  inhibition at 5 µM: 9%
